# Activity calls are given as the source filed them. No cut-off for these calls is given here.
# Molecular target: T1, Bile acid receptor (Homo sapiens, UniProt Q96RI1)
# T1 sequence (Q96RI1 whole entry): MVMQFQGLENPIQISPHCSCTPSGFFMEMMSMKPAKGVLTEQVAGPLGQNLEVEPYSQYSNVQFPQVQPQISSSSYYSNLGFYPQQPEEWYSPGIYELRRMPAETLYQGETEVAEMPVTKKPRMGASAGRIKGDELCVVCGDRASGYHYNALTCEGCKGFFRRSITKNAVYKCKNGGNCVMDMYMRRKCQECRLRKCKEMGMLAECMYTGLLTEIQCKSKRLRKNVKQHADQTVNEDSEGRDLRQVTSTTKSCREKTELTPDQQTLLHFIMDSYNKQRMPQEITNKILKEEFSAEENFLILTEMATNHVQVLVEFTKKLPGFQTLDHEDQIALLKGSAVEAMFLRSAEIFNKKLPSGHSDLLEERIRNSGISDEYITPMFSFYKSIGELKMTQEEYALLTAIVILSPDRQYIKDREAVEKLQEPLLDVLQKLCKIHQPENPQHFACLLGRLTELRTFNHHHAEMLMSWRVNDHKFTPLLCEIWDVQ
# Experiment: Agonist activity at human FXR expressed in human HeLa cells assessed as transactivation after 24 hrs by luciferase reporter gene assay
# Type: cell-based
row,EC50 [µM],Structure (SMILES)
1,5.8,CCc1ccc(C(=O)Nc2ccccc2C(=O)NCCCC(=O)O)cc1

# Molecular target: T2, Bile acid receptor (Homo sapiens) (UniProt Q96RI1)
# T2 sequence (whole entry): T1 sequence (Q96RI1 whole entry)
# Experiment: Agonist activity at human FXR expressed in human HeLa cells assessed as transactivation at 30 uM after 24 hrs by luciferase reporter gene assay relative to GW4064
# Type: cell-based
row,Structure (SMILES),max activation
1,O=C(O)CCCNC(=O)c1ccccc1NC(=O)Cc1ccc2ccccc2c1,inactive
2,O=C(O)CCCNC(=O)c1ccccc1NCc1ccc2ccccc2c1,inactive
3,CN(C(=O)c1ccc2ccccc2c1)c1ccccc1C(=O)NCCCC(=O)O,inactive
4,O=C(O)CCCNC(=O)c1ccccc1NC(=O)CCc1ccccc1,inactive
5,O=C(O)CCCNC(=O)c1ccccc1NS(=O)(=O)c1ccc2ccccc2c1,inactive
6,CN(CCCC(=O)O)C(=O)c1ccccc1NC(=O)c1ccc2ccccc2c1,inactive
7,O=C(O)CCCNC(=O)c1ccccc1NC(=O)CC(c1ccccc1)c1ccccc1,inactive
8,O=C(O)CCCNCc1ccccc1NC(=O)c1ccc2ccccc2c1,inactive

# The next lines start with the values.
row,max activation,Structure (SMILES)
1,11%,Cc1ccc(C(=O)Nc2ccccc2C(=O)NCCCC(=O)O)cc1
2,inactive,O=C(O)CCCNC(=O)c1ccccc1NC(=O)c1cccc(-c2ccccc2)c1
3,inactive,O=C(O)CCCNC(=O)c1ccccc1NC(=O)c1cc([N+](=O)[O-])cc([N+](=O)[O-])c1
4,inactive,O=C(O)CCCNC(=O)c1ccccc1NC(=O)c1cccc2ccccc12
5,inactive,O=C(O)CCCNC(=O)c1ccccc1NC(=O)c1ccncc1
6,inactive,O=C(O)CCCNC(=O)c1ccccc1NC(=O)c1ccccc1-c1ccccc1

# Molecular target: T2, Bile acid receptor (Homo sapiens)
# Experiment: Agonist activity at human FXR expressed in human HeLa cells assessed as transactivation after 24 hrs by luciferase reporter gene assay relative to GW4064
# Type: cell-based
row,max activation [%],Structure (SMILES)
1,28,CCc1ccc(C(=O)Nc2ccccc2C(=O)NCCCC(=O)O)cc1

# — ChEMBL document CHEMBL3259655, “Anthranilic acid derivatives as novel ligands for farnesoid X receptor (FXR)” (Bioorg Med Chem, 2014)
